Legend:
[1] = molecular target: Neuronal acetylcholine receptor; alpha4/beta2 (Homo sapiens, UniProt P17787+P43681); assay: Displacement of [3H]epibatidine from alpha4beta2 nicotinic receptor expressed in human HEK293 cells; type: cell-based; conditions: read-out: Ki
[2] = molecular target: T1, Neuronal acetylcholine receptor; alpha3/beta4 (Homo sapiens, UniProt P30926+P32297); assay: Displacement of [3H]epibatidine from alpha3beta4 nicotinic receptor expressed in human HEK293 cells; type: cell-based
[3] = Displacement of [3H]epibatidine from alpha6/4beta4 nicotinic receptor expressed in human HEK293 cells; type: cell-based
[4] = molecular target: T1, Neuronal acetylcholine receptor; alpha3/beta4; assay: Agonist activity at alpha3beta4 nicotinic receptor expressed in human HEK cells assessed as intracellular calcium efflux by FLIPR
[5] = Agonist activity at human alpha6/4beta4 nicotinic receptor expressed in human HEK cells assessed as intracellular calcium […] by FLIPR; type: functional, cell-based, HEK293; conditions: read-out: EC50
[6] = Agonist activity at human alpha6/4beta4 nicotinic receptor expressed in human HEK cells assessed as intracellular calcium […] by FLIPR relative to control; type: functional, HEK293
[7] = (§1) Apparent permeability from apical to basolateral side of MDCK cells; type: ADME, cell-based, Canis lupus familiaris; conditions: dog
[8] = molecular target: Voltage-gated inwardly rectifying potassium channel KCNH2 (Homo sapiens, UniProt Q12809); assay: Displacement of [3H]dofetilide from human ERG expressed in HEK293 cells; type: cell-based
[9] = test system: human MDR (P-glycoprotein); assay: (§2) Efflux ratio of permeability from basolateral to apical side over apical to basolateral side of MDCK cells expressing human MDR gene; type: ADME, cell-based, Canis lupus familiaris; conditions: dog, MDCK-MDR1
[10] = molecular target: T1, Neuronal acetylcholine receptor; alpha3/beta4; assay: Agonist activity at alpha3beta4 nicotinic receptor expressed in human HEK cells assessed as intracellular calcium […] by FLIPR relative to control; type: functional, cell-based; conditions: HEK293
[11] = molecular target: Acetylcholine receptor; alpha1/beta1/delta/gamma (Homo sapiens, UniProt P02708+P07510+P11230+Q07001); assay: Binding affinity to alpha-1-beta-gamma-delta nicotinic receptor; type: protein-complex assay
[12] = molecular target: Neuronal acetylcholine receptor subunit alpha-7 (Homo sapiens, UniProt P36544); assay: Displacement of [3H]epibatidine from alpha7 nicotinic receptor expressed in human HEK293 cells; type: cell-based
Mus musculus [13] = assay: Antipsychotic effect in sc dosed CD1 mouse assessed as inhibition of mescaline-induced scratching behavioral response; type: functional
Mus musculus [14] = assay: Antipsychotic effect in sc dosed CD1 mouse assessed as prepulse inhibition; type: functional; conditions: read-out: MED
MDCK [15] = assay: as §1; type: ADME, cell-based, Canis lupus familiaris; conditions: dog
MDCK [16] = assay: as §2; type: ADME, cell-based, Canis lupus familiaris; conditions: dog, MDCK

Chain of Voltage-gated inwardly rectifying potassium channel KCNH2 (Q12809 whole entry): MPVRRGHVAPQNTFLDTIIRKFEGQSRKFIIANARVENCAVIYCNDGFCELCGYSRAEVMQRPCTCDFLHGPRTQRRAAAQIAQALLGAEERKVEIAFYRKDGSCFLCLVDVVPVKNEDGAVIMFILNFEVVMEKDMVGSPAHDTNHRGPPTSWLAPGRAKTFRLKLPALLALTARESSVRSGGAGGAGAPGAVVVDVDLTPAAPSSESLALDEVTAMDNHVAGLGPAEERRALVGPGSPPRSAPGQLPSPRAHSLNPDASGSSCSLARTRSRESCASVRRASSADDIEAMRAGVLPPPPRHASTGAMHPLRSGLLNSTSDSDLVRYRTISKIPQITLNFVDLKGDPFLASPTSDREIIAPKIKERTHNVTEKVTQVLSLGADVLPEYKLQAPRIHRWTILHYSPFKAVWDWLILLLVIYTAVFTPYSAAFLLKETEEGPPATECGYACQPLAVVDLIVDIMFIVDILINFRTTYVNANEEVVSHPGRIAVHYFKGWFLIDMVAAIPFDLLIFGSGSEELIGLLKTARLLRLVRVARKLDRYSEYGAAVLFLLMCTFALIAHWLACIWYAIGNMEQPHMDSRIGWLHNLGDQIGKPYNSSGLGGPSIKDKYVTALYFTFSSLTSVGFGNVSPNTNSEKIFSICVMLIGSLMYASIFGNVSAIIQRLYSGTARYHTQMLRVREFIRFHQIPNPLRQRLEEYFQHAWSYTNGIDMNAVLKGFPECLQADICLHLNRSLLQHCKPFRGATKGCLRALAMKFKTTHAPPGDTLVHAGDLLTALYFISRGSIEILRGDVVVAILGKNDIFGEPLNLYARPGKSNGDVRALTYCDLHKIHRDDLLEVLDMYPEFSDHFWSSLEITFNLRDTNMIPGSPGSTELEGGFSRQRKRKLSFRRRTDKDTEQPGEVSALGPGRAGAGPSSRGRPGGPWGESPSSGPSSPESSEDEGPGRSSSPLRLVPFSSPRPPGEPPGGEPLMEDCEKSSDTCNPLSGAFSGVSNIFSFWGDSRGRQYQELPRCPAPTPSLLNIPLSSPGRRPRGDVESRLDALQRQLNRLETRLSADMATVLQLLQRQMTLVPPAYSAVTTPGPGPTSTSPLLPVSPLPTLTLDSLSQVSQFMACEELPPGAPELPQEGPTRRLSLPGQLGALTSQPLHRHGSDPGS
Chain of Neuronal acetylcholine receptor subunit alpha-7 (P36544 whole entry): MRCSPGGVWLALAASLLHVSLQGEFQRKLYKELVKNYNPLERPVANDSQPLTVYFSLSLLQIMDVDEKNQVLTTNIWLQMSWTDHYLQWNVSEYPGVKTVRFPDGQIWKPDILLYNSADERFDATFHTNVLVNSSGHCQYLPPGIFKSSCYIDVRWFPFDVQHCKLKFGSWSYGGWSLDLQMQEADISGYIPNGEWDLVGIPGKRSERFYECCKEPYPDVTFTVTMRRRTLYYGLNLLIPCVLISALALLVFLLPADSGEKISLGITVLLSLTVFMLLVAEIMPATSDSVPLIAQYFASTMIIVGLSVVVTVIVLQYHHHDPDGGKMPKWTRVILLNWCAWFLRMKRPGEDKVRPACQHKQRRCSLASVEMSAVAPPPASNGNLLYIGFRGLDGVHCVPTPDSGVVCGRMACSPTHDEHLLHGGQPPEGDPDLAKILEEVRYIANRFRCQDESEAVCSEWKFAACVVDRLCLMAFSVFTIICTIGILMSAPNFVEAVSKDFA
Chain of Acetylcholine receptor; alpha1/beta1/delta/gamma (P02708 whole entry): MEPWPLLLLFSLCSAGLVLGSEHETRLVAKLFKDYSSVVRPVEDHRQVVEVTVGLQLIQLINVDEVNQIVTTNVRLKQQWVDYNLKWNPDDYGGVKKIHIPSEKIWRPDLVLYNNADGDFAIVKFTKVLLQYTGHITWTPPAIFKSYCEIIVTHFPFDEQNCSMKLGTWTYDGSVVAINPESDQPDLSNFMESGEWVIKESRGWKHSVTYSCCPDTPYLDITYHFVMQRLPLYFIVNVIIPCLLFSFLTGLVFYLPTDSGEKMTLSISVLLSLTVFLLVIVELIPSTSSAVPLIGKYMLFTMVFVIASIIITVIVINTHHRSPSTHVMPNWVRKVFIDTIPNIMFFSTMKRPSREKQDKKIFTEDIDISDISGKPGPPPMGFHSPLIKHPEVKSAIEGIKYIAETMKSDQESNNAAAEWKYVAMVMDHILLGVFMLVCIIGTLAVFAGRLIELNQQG
Chain of Acetylcholine receptor; alpha1/beta1/delta/gamma (P07510 whole entry): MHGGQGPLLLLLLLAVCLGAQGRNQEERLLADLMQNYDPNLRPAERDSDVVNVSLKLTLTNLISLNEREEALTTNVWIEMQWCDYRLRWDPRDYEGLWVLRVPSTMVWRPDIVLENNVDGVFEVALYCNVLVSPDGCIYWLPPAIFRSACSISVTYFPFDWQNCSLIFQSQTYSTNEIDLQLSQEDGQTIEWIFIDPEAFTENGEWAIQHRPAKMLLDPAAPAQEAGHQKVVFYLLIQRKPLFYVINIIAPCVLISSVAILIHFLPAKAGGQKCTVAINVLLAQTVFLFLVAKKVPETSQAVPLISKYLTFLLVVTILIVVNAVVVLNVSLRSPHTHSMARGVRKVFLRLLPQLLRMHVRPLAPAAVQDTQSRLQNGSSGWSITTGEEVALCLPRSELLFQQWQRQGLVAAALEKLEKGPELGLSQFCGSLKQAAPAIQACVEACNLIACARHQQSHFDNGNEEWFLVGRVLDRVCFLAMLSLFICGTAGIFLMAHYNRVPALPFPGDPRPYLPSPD
Chain of Acetylcholine receptor; alpha1/beta1/delta/gamma (P11230 whole entry): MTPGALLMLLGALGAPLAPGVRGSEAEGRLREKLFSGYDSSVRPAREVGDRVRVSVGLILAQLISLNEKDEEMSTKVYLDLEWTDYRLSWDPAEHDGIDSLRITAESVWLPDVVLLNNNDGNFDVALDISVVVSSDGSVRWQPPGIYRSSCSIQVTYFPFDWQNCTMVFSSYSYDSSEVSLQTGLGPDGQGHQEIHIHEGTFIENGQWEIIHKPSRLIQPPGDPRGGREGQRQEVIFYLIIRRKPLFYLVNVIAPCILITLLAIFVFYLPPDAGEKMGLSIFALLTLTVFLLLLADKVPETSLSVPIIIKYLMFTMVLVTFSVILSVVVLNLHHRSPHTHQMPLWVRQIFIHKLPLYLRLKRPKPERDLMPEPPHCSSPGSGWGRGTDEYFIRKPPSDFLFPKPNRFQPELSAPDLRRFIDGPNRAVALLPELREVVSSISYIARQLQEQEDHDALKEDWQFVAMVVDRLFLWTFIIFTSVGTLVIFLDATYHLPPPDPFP
Chain of Acetylcholine receptor; alpha1/beta1/delta/gamma (Q07001 whole entry): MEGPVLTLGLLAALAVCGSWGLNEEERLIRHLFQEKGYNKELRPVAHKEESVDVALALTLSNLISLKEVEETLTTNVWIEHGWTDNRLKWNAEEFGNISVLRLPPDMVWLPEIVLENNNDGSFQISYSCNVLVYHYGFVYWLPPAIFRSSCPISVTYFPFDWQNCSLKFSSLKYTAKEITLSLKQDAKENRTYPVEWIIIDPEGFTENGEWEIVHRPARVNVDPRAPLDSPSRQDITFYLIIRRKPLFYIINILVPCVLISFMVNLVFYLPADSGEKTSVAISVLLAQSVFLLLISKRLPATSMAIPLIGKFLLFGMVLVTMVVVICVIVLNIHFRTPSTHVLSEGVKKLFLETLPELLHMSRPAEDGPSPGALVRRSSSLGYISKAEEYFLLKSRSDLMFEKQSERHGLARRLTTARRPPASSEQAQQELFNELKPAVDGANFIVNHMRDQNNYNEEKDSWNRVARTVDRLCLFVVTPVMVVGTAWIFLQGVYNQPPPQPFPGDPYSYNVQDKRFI
Chain of Neuronal acetylcholine receptor; alpha4/beta2 (P17787 whole entry): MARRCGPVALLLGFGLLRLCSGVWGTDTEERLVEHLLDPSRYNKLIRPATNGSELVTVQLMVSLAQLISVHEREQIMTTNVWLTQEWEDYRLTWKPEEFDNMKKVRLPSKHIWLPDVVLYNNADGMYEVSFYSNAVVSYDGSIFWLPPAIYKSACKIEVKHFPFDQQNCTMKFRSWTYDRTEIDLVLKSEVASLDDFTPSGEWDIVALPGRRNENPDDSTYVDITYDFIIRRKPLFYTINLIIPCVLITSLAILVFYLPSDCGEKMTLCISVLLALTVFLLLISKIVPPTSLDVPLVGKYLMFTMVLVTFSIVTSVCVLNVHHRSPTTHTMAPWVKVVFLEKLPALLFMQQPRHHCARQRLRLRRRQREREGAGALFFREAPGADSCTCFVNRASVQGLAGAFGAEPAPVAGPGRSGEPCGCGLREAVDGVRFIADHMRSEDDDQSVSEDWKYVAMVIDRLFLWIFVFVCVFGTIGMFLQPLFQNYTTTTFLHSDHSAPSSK
Chain of Neuronal acetylcholine receptor; alpha4/beta2 (P43681 whole entry): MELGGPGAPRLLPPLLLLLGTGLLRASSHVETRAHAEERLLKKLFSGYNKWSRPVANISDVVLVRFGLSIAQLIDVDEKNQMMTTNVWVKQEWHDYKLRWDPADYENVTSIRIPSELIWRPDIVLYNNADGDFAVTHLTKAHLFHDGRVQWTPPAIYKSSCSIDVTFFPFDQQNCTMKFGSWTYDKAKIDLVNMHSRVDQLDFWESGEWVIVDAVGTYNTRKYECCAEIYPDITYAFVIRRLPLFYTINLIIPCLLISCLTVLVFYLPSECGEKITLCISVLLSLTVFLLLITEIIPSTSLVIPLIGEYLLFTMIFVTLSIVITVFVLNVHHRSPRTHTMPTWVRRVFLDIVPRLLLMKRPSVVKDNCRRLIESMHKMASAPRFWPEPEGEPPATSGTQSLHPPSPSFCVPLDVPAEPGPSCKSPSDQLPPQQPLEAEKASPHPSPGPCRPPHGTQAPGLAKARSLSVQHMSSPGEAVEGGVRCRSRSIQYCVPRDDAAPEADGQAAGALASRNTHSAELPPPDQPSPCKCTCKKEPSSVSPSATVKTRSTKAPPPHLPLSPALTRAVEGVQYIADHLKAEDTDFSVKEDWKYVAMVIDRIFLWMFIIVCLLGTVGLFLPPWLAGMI

| SMILES | Ki [1] | Ki [2] | Ki [3] | EC50 [4] | EC50 ([5]; Homo sapiens, HEK293) | Efficacy [6] | Papp A→B [7] | Ki ([8]; read-out: Ki) | efflux ratio [9] | Efficacy [10] | Ki [11] | Ki [12] | EC50 ([5]; hek293) | Ki ([8]; hek293) | ED50 (Mus musculus [13]; read-out: ID50 (the source's name)) | minimal effective dose (Mus musculus [13]; read-out: MED) | minimal effective dose (Mus musculus [14]) | Papp (MDCK [15]) | Ratio (MDCK [16]) |
| --- | --- | --- | --- | --- | --- | --- | --- | --- | --- | --- | --- | --- | --- | --- | --- | --- | --- | --- | --- |
| Cl.c1cncc(-c2ccccc2O[C@H]2C[C@@H]3CNC[C@H]2C3)c1 (racemic) | > 1310 nM | 1.3 nM | 3.8 nM | 57 nM | 53 nM | 32.5% | 30.3 ×10⁻⁶ cm/s | 2160 nM | 1.75 | – | – | – | – | – | – | – | – | – | – |
| Cl.Fc1ccncc1-c1ccccc1O[C@H]1C[C@@H]2CNC[C@H]1C2 (racemic) | – | 0.856 nM | 1.33 nM | 197 nM | 625 nM | – | 13.3 ×10⁻⁶ cm/s | – | 1.26 | 65% | – | – | – | – | – | – | – | – | – |
| Cl.Nc1ccncc1-c1ccccc1O[C@H]1C[C@@H]2CNC[C@H]1C2 (racemic) | > 1040 nM | 0.957 nM | 2.05 nM | 33.6 nM | 265 nM | 61% | – | – | – | 97% | 4430 nM | – | – | – | – | – | – | – | – |
| CS(=O)(=O)Nc1cncc(-c2ccccc2O[C@H]2C[C@@H]3CNC[C@H]2C3)c1 (racemic) | – | – | – | – | – | – | – | – | – | 116% | – | – | – | – | – | – | – | – | – |
| Cl.Oc1ccncc1-c1ccccc1O[C@H]1C[C@@H]2CNC[C@H]1C2 (racemic) | > 419 nM | 2.1 nM | 3.15 nM | 16.3 nM | 5 nM | 91% | – | – | – | 82% | > 15300 nM | > 15000 nM | – | – | – | – | – | – | – |
| Cl.Oc1cncc(-c2ccccc2O[C@H]2C[C@@H]3CNC[C@H]2C3)c1 (racemic) | 255 nM | 0.186 nM | 0.425 nM | 2.59 nM | – | 75% | 4.05 ×10⁻⁶ cm/s | 1580 nM | 5.84 | – | 5000 nM | 1580 nM | 4.3 nM | – | – | – | – | – | – |
| CS(=O)(=O)Nc1cncc(-c2ccccc2O[C@H]2C[C@@H]3CNC[C@H]2C3)c1.Cl | 336 nM | 0.158 nM | 0.168 nM | 3.06 nM | – | 148% | 1.17 ×10⁻⁶ cm/s | – | 4.38 | – | 11700 nM | 4780 nM | 3.27 nM | Not Active | 0.66 mg/kg | 0.1 mg/kg | 3.2 mg/kg | – | – |
| Cl.Oc1cncc(-c2ccccc2O[C@H]2C[C@@H]3CNC[C@H]2C3)c1 | 252 nM | 0.748 nM | 0.177 nM | 2.99 nM | – | 230% | – | – | – | – | 1680 nM | > 13500 nM | 279 nM | Not Active | – | – | – | 3.36 ×10⁻⁶ cm/s | 5.02 |
| CS(=O)(=O)Nc1cncc(-c2ccccc2O[C@@H]2C[C@H]3CNC[C@@H]2C3)c1.Cl | 2900 nM | 1.33 nM | 3.73 nM | 2.92 nM | 2.27 nM | 182% | 0.84 ×10⁻⁶ cm/s | – | 4.65 | 122% | > 15000 nM | > 15000 nM | – | Not Active | – | – | – | – | – |
| Cl.Fc1cncc(-c2ccccc2O[C@H]2C[C@@H]3CNC[C@H]2C3)c1 (racemic) | > 1500 nM | 2.17 nM | 10.1 nM | 316 nM | 248 nM | 45% | 10 ×10⁻⁶ cm/s | – | 1.29 | 84.5% | > 16900 nM | > 13500 nM | – | Not Active | – | – | – | – | – |
| COc1cncc(-c2ccccc2O[C@H]2C[C@@H]3CNC[C@H]2C3)c1.Cl (racemic) | > 309 nM | 94.1 nM | 9.01 nM | 32.7 nM | 28.9 nM | <20% | 24.4 ×10⁻⁶ cm/s | – | 1.76 | 11% | – | – | – | Not Active | – | – | – | – | – |
| Oc1cncc(-c2ccccc2O[C@H]2C[C@@H]3CNC[C@H]2C3)c1 (racemic) | – | – | – | – | – | – | – | – | – | 117% | – | – | – | – | – | – | – | – | – |
| Cl.Oc1cncc(-c2ccccc2O[C@@H]2C[C@H]3CNC[C@@H]2C3)c1 | 149 nM | 2.02 nM | 7.16 nM | 34.4 nM | – | 70% | 2.66 ×10⁻⁶ cm/s | – | 3.5 | 52% | 8320 nM | > 15000 nM | – | Not Active | – | – | – | – | – |
| CS(=O)(=O)Nc1cncc(-c2ccccc2O[C@H]2C[C@@H]3CNC[C@H]2C3)c1 | – | – | – | – | – | – | – | – | – | 120% | – | – | – | – | – | – | – | – | – |
